Assay results taken from PubChem BioAssay AID2740 (NMMLSC, 2010).
Activity calls are given as the source filed them.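 Rule for the calls: active = compounds whose fitted half-maximal concentration for changing the GFP signal is at or below a set limit; inactive = the rest.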

experiment: TOR pathway RPL19A-GFP modulators, concentration series – cell-based, S. cerevisiae, flow cytometry, MLPCN hits, dose response (AID 2740);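 note: background is signal of the same compound in parental non-GFP s288c yeast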; conditions: S. cerevisiae RPL19A-GFP strain, flow cytometry fluorescence, 3 h; at 33 µM (top of the series)

Row | SMILES | GFP fluorescence, lower = active (kMESF (background-subtracted))
1 | CCCOc1ccc(C(=O)NNC(=S)NC(=O)c2ccco2)cc1 | 51 (inactive)
2 | COc1cc(C=C2C(=O)c3ccccc3C2=O)cc(OC)c1 | 41.6 (inactive)
3 | O=C(CCc1ccccc1)NNC(=S)NC(=O)c1ccccc1 | 44.5 (inactive)
4 | O=c1c2cc(Br)ccc2nc(-c2ccc([N+](=O)[O-])cc2)n1O | 15.6 (inactive)
5 | COc1ccc(N2C(=O)C(Cl)=C(NCc3ccccc3)C2=O)cc1 | 44.3 (inactive)
6 | O=C(Oc1cccc2cccnc12)c1ccc(Br)o1 | 44.1 (inactive)
7 | O=S(=O)(CCN(CCS(=O)(=O)C(F)(F)F)CC1CCCO1)C(F)(F)F (stereo not drawn) | 27.1 (inactive)
8 | O=[N+]([O-])c1cnc(Sc2ccncn2)s1 | 31.1 (inactive)
9 | CC1=CC(=O)C(C(C)C)=C/C1=N/OS(=O)(=O)c1ccccc1 | 23.9 (inactive)
10 | O=C(NC(=S)NNC(=O)c1cnccn1)c1ccc(F)cc1 | 31.9 (inactive)
11 | COCCN1C(=O)/C(=C/c2ccc(N3CCCC3)cc2C)SC1=S | 43 (inactive)
12 | Cc1ccc2nc(/C(C#N)=C/c3ccc(O)c(O)c3)[nH]c2c1 | 43.8 (inactive)
13 | NC(=O)COc1ccc(C(=O)/C=C2/C(=O)Nc3ccccc32)cc1 | 40.3 (inactive)
14 | Cc1ccc(NC(=O)CCc2ccccc2)cc1S(=O)(=O)N1CCOCC1 | 45.9 (inactive)
15 | CCc1nc2ccccc2c(=O)n1NC(=O)c1c(O)c2cccc3c2n(c1=O)CCC3 | 25.5 (inactive)
16 | N/C(Cc1ccc(Cl)cc1Cl)=N\OC(=O)c1ccccc1 | 28.6 (inactive)
17 | O=c1oc(/C=C/c2ccc([N+](=O)[O-])s2)nc2ccccc12 | 55 (inactive)

Row | SMILES | GFP fluorescence, lower = active (kMESF (background-subtracted))
18 | CN(C)/C=C/C(=O)c1ccc(-c2ccc(Cl)cc2Cl)o1 | 40.9 (inactive)
19 | CC(=O)Oc1oc(-c2ccccc2)nc1C=Nc1ccccc1 | 39.7 (inactive)
20 | CCCCC1OC23CCCCC2C(C#N)(C(=N)O3)C1(C#N)C#N (stereo not drawn) | 43.5 (inactive)
21 | O=[N+]([O-])c1ccc(N=Nc2c(Cl)cc(O)cc2Cl)cc1 | 37.9 (inactive)
22 | Cc1ccc2[nH]cc(/C=C/c3cc[n+](C)cc3)c2c1 | 38.4 (inactive)
23 | COc1ccc(/C=C/C(=O)NC(=S)NNC(=O)c2cnccn2)cc1 | 49.2 (inactive)
24 | CCCOc1ccc(C(=O)NNC(=S)NC(=O)c2ccccc2)cc1 | 45.7 (inactive)
25 | O=C(Cc1ccc(Cl)cc1)NNC(=S)NC(=O)c1cccs1 | 45.9 (inactive)
26 | COc1ccc(NC2=C(Cl)C(=O)N(CCc3ccccc3)C2=O)cc1 | 41.6 (inactive)
27 | COc1ccc(-c2cc(C(F)(F)F)nc(S(C)(=O)=O)n2)cc1 | 44.7 (inactive)
28 | O=C(OCC(=O)N1CCN(C(=O)c2ccco2)CC1)c1cc(-c2ccc(Cl)c(Cl)c2Cl)nc2ccccc12 | 31.8 (inactive)
29 | CC(=O)Oc1ccc(/C=c2\sc3ncnn3c2=O)cc1 | 50 (inactive)
30 | Cc1cc2ccccn2c1C(=O)c1ccc([N+](=O)[O-])o1 | 20.7 (inactive)
31 | O=C1CC(c2ccccc2)=NN1c1nc(-c2ccccc2)cs1 | 19.4 (inactive)
32 | Cc1sc(/C=C2\C(=O)ON=C2c2ccccc2)cc1Br | 45 (inactive)
33 | Oc1ccc2ccccc2c1N=Nc1nccs1 | 51 (inactive)
